Source: PubChem BioAssay AID623876 (Vanderbilt Specialized Chemistry Center, 2012)
Several values for one entry are separate records, joined by “and”; a condition that tells them apart may be missing. Equal values may be shown once. Activity calls are given as the source filed them.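 The calls were made as follows: active = mean EC50 dose giving half the maximal effect below 30 µM; inactive = mean EC50 of 30 µM or more.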

Target: Metabotropic glutamate receptor 4 (Homo sapiens) (UniProt Q14833)
Assay: mGlu4 positive allosteric modulators, SAR follow-up, human, CHO Gqi5 cells, calcium mobilization (AID 623876)
Settings: CHO hmGlu4/Gqi5 calcium mobilization, PAM at EC20 glutamate; for % glutamate max response: stronger effect = higher value

Metabotropic glutamate receptor 4 (Homo sapiens), sequence (Q14833 whole entry, looked up): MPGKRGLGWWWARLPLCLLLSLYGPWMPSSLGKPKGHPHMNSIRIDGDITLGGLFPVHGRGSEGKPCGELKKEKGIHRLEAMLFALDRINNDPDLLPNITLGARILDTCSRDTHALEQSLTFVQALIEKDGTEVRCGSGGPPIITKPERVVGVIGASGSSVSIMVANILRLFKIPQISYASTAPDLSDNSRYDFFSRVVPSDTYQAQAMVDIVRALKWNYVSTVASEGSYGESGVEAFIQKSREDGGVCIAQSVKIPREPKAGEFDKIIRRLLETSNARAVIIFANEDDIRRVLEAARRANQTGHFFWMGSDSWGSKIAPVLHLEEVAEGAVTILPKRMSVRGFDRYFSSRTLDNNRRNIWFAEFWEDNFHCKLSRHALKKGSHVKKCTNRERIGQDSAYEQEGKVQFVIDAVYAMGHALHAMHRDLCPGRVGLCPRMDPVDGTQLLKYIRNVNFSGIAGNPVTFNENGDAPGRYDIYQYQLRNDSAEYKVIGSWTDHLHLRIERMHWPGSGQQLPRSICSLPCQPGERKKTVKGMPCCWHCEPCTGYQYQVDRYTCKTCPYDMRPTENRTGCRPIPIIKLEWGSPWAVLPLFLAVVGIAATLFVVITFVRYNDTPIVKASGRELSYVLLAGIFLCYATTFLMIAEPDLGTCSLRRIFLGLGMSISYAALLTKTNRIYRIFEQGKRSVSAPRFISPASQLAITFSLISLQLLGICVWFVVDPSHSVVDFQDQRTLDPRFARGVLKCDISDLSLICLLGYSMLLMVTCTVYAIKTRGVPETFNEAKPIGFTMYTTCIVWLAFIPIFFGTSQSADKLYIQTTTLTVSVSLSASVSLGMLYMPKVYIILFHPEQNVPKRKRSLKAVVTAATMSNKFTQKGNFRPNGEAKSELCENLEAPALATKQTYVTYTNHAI

Row | SMILES | % glutamate max response | EC50
1 | COc1cc(NC(=O)c2c(F)cccc2F)ccc1Cl | inactive | –
2 | Fc1cccc(Nc2noc3cccnc23)c1 | – | 1.19 µM
3 | COc1ccc(Nc2ncnc3cccnc23)cc1Cl | inactive | –
4 | COc1cc(N2C(=O)c3cccnc3C2=O)ccc1Cl | inactive | –
5 | Cc1nsc(NC(=O)c2ccccn2)n1 | inactive | –
6 | COc1cc(NC(=O)c2ccccc2C)ccc1Cl | inactive | –
7 | Brc1cccc(-c2nc(-c3ccccn3)no2)c1 | inactive | –
8 | COc1cc(Nc2ncn3ccccc23)ccc1Cl | inactive | –
9 | Clc1cccc(Nc2cccc3cccnc23)c1 | inactive | –
10 | Cn1ccnc1NC(=O)c1ccccn1 | inactive | –
11 | Clc1cccc(Nc2nc3ccccc3o2)c1 | – | 0.6 µM
12 | O=C(Nc1ccc2c(c1)C(=O)NC2=O)c1ccccn1 | – | 3.82 µM
13 | c1ccc(Nc2coc3cccnc23)cc1 | inactive | –
14 | COc1cc(Nc2nccc3ccccc23)ccc1Cl | inactive | –
15 | COc1cc2nc(-c3ncc[nH]3)[nH]c2cc1Cl | – | > 10 µM
16 | Cc1nc(NC(=O)c2ccccn2)nn1C | inactive | –
17 | COc1cc(N2Cc3ccccc3C2=O)ccc1Cl | inactive | –
18 | Fc1ccc2nc(-c3ccccn3)[nH]c2c1 | – | > 10 µM
19 | COc1cc(Nc2nccc3cccnc23)ccc1Cl | inactive | –
20 | Cn1cnc(NC(=O)c2ccccn2)n1 | inactive | –

Row | SMILES | % glutamate max response | EC50
21 | FC(F)(F)c1cccc(-c2nc(-c3ccccn3)no2)c1 | inactive | –
22 | Cn1ccc(NC(=O)c2ccccn2)n1 | inactive | –
23 | COc1cc(Nc2cccc3cccnc23)ccc1Cl | inactive | –
24 | COc1cc(N2C(=O)c3ccccc3C2=O)ccc1Cl | inactive | –
25 | FC(F)Oc1cccc(Nc2noc3cccnc23)c1 | – | 0.36 µM and 0.44 µM
26 | COc1cc(NC(C)=O)ccc1Cl | inactive | –
27 | COc1cc2nc(-c3ccccn3)[nH]c2cc1Cl | – | > 10 µM
28 | Clc1cccc(Nc2nccc3ccccc23)c1 | inactive | –
29 | Clc1cccc(-c2n[nH]c(-c3ccccn3)n2)c1 | inactive | –
30 | Fc1cccc(Nc2ncnc3cccnc23)c1 | inactive | –
31 | c1ccc(Nc2ncnc3cccnc23)cc1 | inactive | –
32 | COc1cc2nc(-c3cnccn3)[nH]c2cc1Cl | inactive | –
33 | Cc1cc(Nc2ncnc3cccnc23)ccc1Cl | inactive | –
34 | O=C(Nc1nc(C(F)(F)F)cs1)c1ccccn1 | – | > 10 µM
35 | COc1cc(Nc2nc3ccccc3o2)ccc1Cl | inactive | –
36 | COc1cc(NC(=O)c2ccccc2F)ccc1Cl | – | > 10 µM
37 | COc1cc(NS(=O)(=O)c2ccccn2)ccc1Cl | inactive | –
38 | Fc1ccc(Nc2ncnc3cccnc23)cc1F | inactive | –
39 | COc1cc(Nc2noc3cccnc23)ccc1Cl | – | 3.26 µM
40 | COc1cc(OC)cc(-c2nc(-c3ccccn3)no2)c1 | inactive | –

Further lines, results first:

Row | % glutamate max response | EC50 | SMILES
41 | inactive | – | O=C(c1cncs1)N1CCOc2ccc(Cl)cc21
42 | inactive | – | COc1cccc(C(=O)N2CCOc3ccc(Cl)cc32)n1
43 | inactive | – | O=C(c1ccccn1)N1CCOc2ccc(Cl)cc21
44 | inactive | – | O=C(c1cccs1)N1CCOc2ccc(Cl)cc21
45 | – | > 10 µM | O=C(Nc1ccc2cc[nH]c2c1)c1ccccn1
46 | inactive | – | Clc1cccc(Nc2nccc3cccnc23)c1
47 | inactive | – | Clc1cccc(-c2nc(-c3ccccn3)no2)c1
48 | – | > 10 µM | O=c1[nH]c(-c2ccccn2)nc2cc(Cl)ccc12
49 | inactive | – | O=C(c1ccccn1)N1CCOc2c(Cl)cccc21
50 | inactive | – | O=C1COc2cc(NC(=O)c3ccccn3)ccc2N1
51 | inactive | – | O=C(c1ccncn1)N1CCOc2ccc(Cl)cc21
52 | – | 1.37 µM | O=C(Nc1ccc2cn[nH]c2c1)c1ccccn1
53 | inactive | – | Fc1ccc(Nc2ncnc3cccnc23)cc1Cl
54 | inactive | – | O=C(NCCc1cccc(Cl)c1)c1ccccn1
55 | inactive | – | CCN(C(=O)c1ccccn1)c1cccc(Cl)c1
56 | inactive | – | O=C(c1ccccn1)N(Cc1ccccn1)c1cccc(Cl)c1
57 | inactive | – | O=C(c1cccc(Cl)n1)N1CCOc2ccc(Cl)cc21
58 | inactive | – | O=C1c2cccnc2C(=O)N1c1cccc(Cl)c1
59 | – | 1.2 µM | O=C(Nc1cccc(Cl)c1)c1ccccn1
60 | – | > 10 µM | Clc1cccc(Nc2coc3cccnc23)c1
61 | – | > 10 µM | Clc1cccc(Nc2ccccn2)c1
62 | – | > 10 µM | CC(C)N(C(=O)c1ccccn1)c1cccc(Cl)c1
63 | – | 7.22 µM | Clc1cccc(Nc2ncnc3cccnc23)c1
64 | inactive | – | O=C(c1ccco1)N1CCOc2ccc(Cl)cc21
65 | – | 4.68 µM | Clc1ccc2nc(-c3ccccn3)[nH]c2c1
66 | – | 0.47 µM and 0.3 µM and 0.25 µM | Clc1cccc(Nc2noc3cccnc23)c1
67 | inactive | – | c1cnc2c(Nc3ccc4c(c3)OCO4)ncnc2c1
68 | inactive | – | O=C(NCc1cccc(Cl)c1)c1ccccn1
69 | – | > 10 µM | O=C(c1cscn1)N1CCOc2ccc(Cl)cc21
